Test [1] deals with PBMC from RhD alloimmunised donors. The test is described as follows: Cell proliferation assay (3H-thymidine) of PBMC from RhD alloimmunised donors stimulated with RhD peptides. The test is classed as cell-based, human. The conditions noted are these: peptide 20 μg/ml, 5 days. How it is done: Five complete panels of 68 15-mer peptides, with 5 or 10 amino acid overlaps, were synthesized (Multiple Peptide Service, Cambridge Research Biochemicals, Cheshire, UK and Dept. Of Biochemistry, University of Bristol, UK), corresponding to the sequences of the 30 kD Rh proteins associated with expression of the RhD or RhcE/ce/Ce/CE blood group antigens respectively (Tables 1 to 5). An additional three peptide sequences is added to the panel of RhD peptides to account for the Ile to Met substitution described earlier (numbered from 69 to 71). The amino acid sequences for each of these proteins were deduced from cDNA analyses (FIG. 1). In order to ensure purity, each panel was synthesized by fluorenylmethoxycarbonyl chemistry on resin using a base-labile linker, rather than by conventional pin technology, and randomly selected peptides were screened for purity by HPLC and amino acid analysis.
Peripheral blood mononuclear cells (PBMC) from donors or patients were separated from fresh blood samples using Ficoll-Hypaque. The donors and patients had become alloimmunised with RhD-positive blood either through pregnancy, a blood transfusion or through immunization with the relevant blood.
PBMC were cultured in 100 μl volumes in microtitre plates at a concentration of 1.25×10^6 cells/ml in an Alpha Modification of Eagle's Medium (ICN Flow, Bucks UK) supplemented with 5% autologous serum, 4 mM L-Glutamine (Gibco, Paisley, UK), 100 U/ml sodium benzylpenicillin G (Sigma), 100 μg/ml streptomycin sulphate (Sigma), 5×10^−5M 2-mercaptoethanol (Sigma) and 20 mM HEPES pH7,2 (Sigma). All plates were incubated at 37° C. in a humidified atmosphere of 5% CO2/95% air. The cell proliferation in cultures was estimated from the incorporation of ^3H-Thymidine in triplicate wells 5 days after stimulation with antigen as described previously. Proliferation results are presented either as the mean CPM+/−SD of the triplicate samples, or as a stimulation index (SI), expressing the ratio of mean CPM in stimulated versus unstimulated control cultures. An S1>3 with CPM>1000 is interpreted as representing a positive response.

Test [2] deals with CD3+ CD4+ T-cells of RhD-alloimmunised donors. As to the kind of experiment: Three colour flow cytometry of CD3, CD4 and intracellular IFN-γ or IL-10 in PBMC from RhD-alloimmunised donors. The test is classed as cell-based, human. The conditions noted are these: CD3+ gated, representative alloimmune donor, 5 days; for proportion of CD4+ IL-10+ T-cells: unstimulated cultures 2.4%; for proportion of CD4+ IFN-γ+ T-cells: unstimulated cultures 4.2%. The method, then: (§1) The secretion of cytokines identified in Example 1.3 by T-helper cells is confirmed by flow cytometery analysis. Simultaneous measurement of surface molecules CD3 and CD4 and intracellular cytokines IFN-γ or IL-10 was carried out using three colour flow cytometry analysis in PBMC, isolated from RhD-alloimmunised donors, cultured with either no antigen or RhD peptide for five days after stimulation. All analysis was carried out using Expo v2 analysis software (applied Cytometry Systems). The CD3+ T-cells were gated open and the numbers of IFN-γ+ and CD4+ cells were assessed. In all donors tested there was a significant increase in the proportion of CD4+ IFN-γ+CD3+ T-cells to at least one of the RhD peptides tested. In the representative example shown in FIGS. 12A to 12L it can be seen that the proportion of CD4+ IFN-γ+cells was 4.2% in unstimulated cultures (FIG. 12E). […] The IL-10 and CD4+ expression was also assessed on CD3+ gated population of T-cells. In PBMC cultures isolated from the alloimmune donor shown, there was an increase in the proportion of CD4+ IL-10+T-cells from 2.4% in unstimulated PBMC cultures (FIG. 12I) to 6.5% in culture stimulated with RhD peptide 13 (FIG. 12J) to 6.2% in cultures stimulated with RhD peptide 17 (FIG. 12K) and 5.9% with RhD peptide 28 (FIG. 12L).

A further test deals with HLA-DR15 transgenic mice. As to the kind of experiment: Tolerisation in vivo to RhD protein in HLA-DR15 transgenic mice. The method, then: HLA-DR15 transgenic mice were immunised twice with 2 mg/ml purified RhD protein. The first subcutaneous injection was followed 14 days later by an intraperitoneal injection. Mice were sacrificed 14 days after the final injection. The spleen was removed and blood collected by cardiac puncture.
Fourteen days before RhD immunisation (as above) 25 μl of 2 mg/ml soluble RhD peptides were administered by the intranasal route.
Fourteen days before RhD immunisation (as above) 25 μl of 2 mg/ml soluble RhD peptides were administered by the subcutaneous route.
Splenocytes were homogenised and a single cell suspension was isolated over 40 μm mesh filters (Becton Dickinson) and resuspended to 1.25×10^6 cells/ml in the Alpha Modification of Eagle's Medium (ICN Flow, Bucks UK) supplemented with 5% autologous serum, 4 mM L-Glutamine (Gibco, Paisley, UK), 100 U/ml sodium benzylpenicillin G (Sigma), 100 μg/ml streptomycin sulphate (Sigma), 5×10^−5 2-mercaptoethanol (Sigma) and 20 mM HEPES pH7.2 (Sigma). All plates were incubated at 37° C. in a humidified atmosphere of 5% CO2/95% air. The cell proliferation in cultures was estimated from the incorporation of ^3H-thymidine (Amersham) in triplicate wells 5 days after stimulation with antigen. Proliferation results are presented either as the mean CPM±SD of the triplicate samples, or as a stimulation index (SI) expressing the ratio of mean CPM in stimulated versus unstimulated control cultures. An SI>3 with CPM>500 is interpreted as representing a positive response.
Round bottomed microtitre plates (Nunc, Roskilde, Denmark) were blocked in phosphate buffered saline pH 7.4 (PBS) containing 0.2% bovine serum albumin (BSA), before addition of 50 μl 2% v/v washed human D-positive RBC. Test sera were incubated at 50 μl per well with triplicate RBC samples for 1 hour at 37° C. and washed three times in PBS-BSA before fixing for 30 minutes in 0.15% glutaraldehyde (Sigma, Dorset, UK) to prevent lysis of the cells in the alkaline conditions required later in the test. The fixed RBC were transferred to fresh, pre-blocked, 96-well plates and washed before incubation with 50 μl per well 1 μg/ml goat anti-mouse IgG γ-chain specific antibody (Sigma) or goat anti-mouse IgM μ-chain specific antibody (Sigma) for 1 hour at 37° C. After washing, the plates were incubated with 50 μl per well 1 μg/ml rabbit anti-goat IgG alkaline phosphatase (Sigma) for 1 hour at 37° C., washed, and 100 μl of phosphatase substrate solution was then incubated in each well for 1 hour at 37° C. After pelleting of the RBC by centrifugation, 50 μl of each supernatant was transferred into the wells of fresh, flat-bottomed microtitre plates (Nunc) and the absorbance measured at 405 nm, with 492 nm as a reference, using a multiscan plate reader (Labsystems, Basingstoke, UK). Each result is expressed as the mean of triplicate wells. Inter-assay variation was controlled for by including previously tested RBC samples on each plate.
It is known from other animal models (Elson C J & Barker R N. Helper T-cells in antibody mediated, organ specific autoimmunity. Curr Opin Immunol, 2000; 12:664-669) that mucosal administration of immunodominant peptides which induce an immune response when given with adjuvant by the parenteral route will inhibit responsiveness, and induce antigen specific tolerance. To test the effectiveness of peptides containing immunodominant allo-RhD helper epitopes in preventing antibody response to the RhD protein, HLA-DR15 transgenic mice were used for the in vivo testing of these peptides as most alloimmunised donors responding to RhD bear this MHC class II allele.

In test [3] the test system is CD3+ CD4+ T-helper cells of AIHA patients. The test is described as follows: Flow cytometry of CD3, CD4 and intracellular cytokines in PBMC from AIHA patients. The test is classed as cell-based, human. The note with it: AIHA patient; for CD3+ CD4+ population of T-helper cells: FIGS. 23A to 23D; for CD4+ T-helper cells expressing intracellular IFN-γ: FIGS. 23E to 23H. The method, then: as §1
The secretion of cytokines identified in Example 2.3 by T-cells is confirmed utilising the experiments mentioned in Example 1.4, which were repeated using PBMC isolated from patients with AIHA.
In general terms: Flow cytometry measures light scatter and fluorescence of single cells or particles in a stream.

In test [4] the test system is PBMC from RhD-alloimmunised donors. As to the kind of experiment: celELISA of cytokine production (IL-10, TGF-β1) by PBMC from RhD alloimmunised donors. The test is classed as cell-based, human. The method, then:
Cultured T-cells are stimulated with each of the epitopes given in Table 1 and after 5 days the responding cells were transferred to flat-bottomed microtitre plates (96-well Nunc-Immuno Maxisorp) coated with […] per well of monoclonal anti-cytokine capture antibody diluted in 0.05M alkaline carbonate coating buffer pH 9.6. Unbound capture antibody was removed by two washes with HBSS and non-specific binding potential blocked by incubation with 200 μl per well of phosphate buffered saline, pH 7.4 (PBS containing 3% BSA).
Five days after stimulation, lymphocyte cultures were mixed to resuspend the cells and duplicate 100 μl aliquots were transferred into wells coated with the respective capture antibody specific for IFN-γ, IL-10 or TGF-β. The plates coated with capture antibodies and layered by lymphocytes were then incubated for a further 24 hours at 37° C. in a humidified atmosphere of 5% CO2 and 95% air. After this incubation the PBMC were removed by four washes with 0.2% Tween/PBS. One hundred microlitre aliquots of the appropriate biotinylated monoclonal detection antibody in 0.2% BSA/PBS were then added to the wells and incubated at room temperature for 45 minutes.
After six washes with 0.5% Tween/PBS, 100 μl of 1:100,000 ExtrAvidin-alkaline phosphatase conjugate (Sigma) was then added to each of the wells and incubated at room temperature for 30 minutes. The ExtrAvidin conjugate was removed by eight washes with 0.2% Tween/PBS, and the plates developed using 100 μl per well of p-nitrophenyl phosphate (Sigma) 1.0 mg/ml in 0.05M carbonate alkaline buffer pH9.6. The absorbance at 405 nm was then measured using a Multiscan plate reader (Labsystems Basingstoke UK).
Cytokine secretion was measured by interpolation from a standard curve generated by incubating duplicate wells with doubling dilutions of recombinant human IFN-γ or IL-10 or TGF-β (Pharmingen). The standard curves were modelled by a smoothed cubic spline function applied to the absorbance reading and the cytokine concentrations after a quasilogarithmic transformation, where: quasiloge(z)=loge[z+{square root}[z^2+1]).
Using celELISA technique, the 68 RhD peptide panel was screened for the ability to induce IL-10 and TGF-β production for PBMC from a total of 19 samples from 12 different alloimmune donors. PMBC from 10 out of the 12 RhD-alloimmunised donors could produce IL-10 to at least one of the RhD peptides on at least one occasion, with a total of 194 significant IL-10 responses to the RhD peptides between all the donors. The RhD peptides that induced significant TGF-β or IL-10 and proliferative responses from PBMC in all the samples screened are summarised in FIGS. 10 and 11.

Where [5] appears, read: peptide intranasal 14 days before RhD immunisation.
The mark [6] stands for this setting: nasal administration of peptide prior to RhD immunisation.
[7] abbreviates: peptide parenteral (subcutaneous) before RhD immunisation.

Entries after “also recorded” stand apart in the source; their conditions may differ.

From patent US20050069544A1, “Pharmaceutical composition and a method of treatment” (priority 1998, published 2005) come the findings set out here.

Turning to “AYFGLSVAWCLPKPL (Residue 177-191 RhD; listed as Homo sapiens) [peptide 28]”, the “proliferative T-cell response to RhD peptides” value (shortened to “proliferative T-cell response”) in test [1] is on record as “most commonly targeted”. For the same sequence, in test [2], the “proportion of CD4+ IL-10+ T-cells” value is 5.9% and the “proportion of CD4+ IFN-γ+ T-cells” value is given as 10.2%. Besides, in the test with HLA-DR15 transgenic mice (setting [5]), the “RhD-specific proliferation by splenocytes after prior tolerisation” value (“RhD-specific proliferation” for short) is listed as “reduction in the RhD-specific proliferation”.

For “FLSQFPSGKVVITLF (Residue 97-111 RhD; listed as Homo sapiens) [peptide 13]”, in test [1], the “proliferative T-cell response” value is listed as “most commonly targeted”. Moreover, in test [2], the “proportion of CD4+ IL-10+ T-cells” value stood at 6.5%. In addition, the “RhD-specific proliferation” value in the test on HLA-DR15 transgenic mice (setting [5]) is “reduction in the RhD-specific proliferation”.

As for “GALFLWMFWPSFNSA (Residue 212-226 RhD; listed as Homo sapiens) [compound 35]”, in test [3], the “CD3+ CD4+ population of T-helper cells” value is “expansion of a CD3+ CD4+population of T-helper cells” and the “CD4+ T-helper cells expressing intracellular IFN-γ” value is on record as “expansion of CD4+ T-helper cells that express intracellular IFN-γ”.

Turning to “QDLTVMAAIGLGFLT (Residue 52-66 RhD; listed as Homo sapiens) [peptide 6]”, the “IL-10 production by PBMC” value in test [4] (FIG. 3 and FIG. 10) is “commonly induce the production of IL-10; also recorded: induce IL-10 production in the absence of a proliferative response or the production of IFN-γ or IL-4”. The “proliferative T-cell response” value in test [1] is “most commonly targeted”. For the same sequence, the “RhD-specific proliferation” value in the test with HLA-DR15 transgenic mice (setting [5]) is “reduction in the RhD-specific proliferation”; with HLA-DR15 transgenic mice (peptide intranasal 14 days before RhD immunisation, listed as p6), “reduced T-cell response to RhD protein”. For the same sequence, in the test on HLA-DR15 transgenic mice (peptide intranasal before RhD immunisation), the “serum anti-human RBC antibody, rr red blood cells” value is given as “reduction of anti-human RBC antibody”.

As for “SIRLATMSALSVLIS (Residue 112-126 RhD; listed as Homo sapiens) [peptide 16]”, in test [4] (FIG. 3 and FIG. 11), the “TGF-β1 production by PBMC” value is reported as “commonly induce the production of TGF-β1”. Moreover, the “proliferative T-cell response” value in test [1] is “most commonly targeted”. In the test with HLA-DR15 transgenic mice (setting [6]), the “IL-10 production by draining lymph node cells” value is reported as “increase” and the “TGF-β1 production by draining lymph node cells” value is on record as “increase”.

On to “TMSALSVLISVDAVL (Residue 117-131 RhD; listed as Homo sapiens) [peptide 17]”, for which the “proliferative T-cell response” value in test [1] is “most commonly targeted; also recorded: induces significant PBMC proliferation”. For the same sequence, in test [1] (SI>3 with CPM>1000 positive, FIG. 6), the “percentage of donors in whom a proliferative response was elicited” value was found to be 70%. In test [2], the “proportion of CD4+ IL-10+ T-cells” value is listed as 6.2% and the “proportion of CD4+ IFN-γ+ T-cells” value amounted to 20.3%. Moreover, the “RhD-specific proliferation” value in the test with HLA-DR15 transgenic mice (setting [5]) is “reduction in the RhD-specific proliferation”.

“VGAGNGMIGFQVLLS (Residue 352-366 RhD; listed as Homo sapiens) [compound 60]”: in test [3], the “CD3+ CD4+ population of T-helper cells” value is reported as “expansion of a CD3+ CD4+population of T-helper cells” and the “CD4+ T-helper cells expressing intracellular IFN-γ” value is “expansion of CD4+ T-helper cells that express intracellular IFN-γ”. Besides, in the test on HLA-DR15 transgenic mice (setting [7]), the “RhD-specific proliferation” value was “reduced T-cell response to RhD protein” and the “serum anti-human RBC antibody, rr red blood cells” value was “no change”.
